Experimental data from ChEMBL document CHEMBL3616426 (Eur J Med Chem, 2015).

Columns and labels:
[1] = molecular target: T1, Estrogen receptor (Homo sapiens) (UniProt P03372); experiment: Agonist activity at ERalpha (301 to 553 amino acid residues) (unknown origin) assessed as induction of interaction with SRC1 after 24 hrs by yeast two-hybrid assay relative to isopaucifloral F
T1 sequence (whole entry): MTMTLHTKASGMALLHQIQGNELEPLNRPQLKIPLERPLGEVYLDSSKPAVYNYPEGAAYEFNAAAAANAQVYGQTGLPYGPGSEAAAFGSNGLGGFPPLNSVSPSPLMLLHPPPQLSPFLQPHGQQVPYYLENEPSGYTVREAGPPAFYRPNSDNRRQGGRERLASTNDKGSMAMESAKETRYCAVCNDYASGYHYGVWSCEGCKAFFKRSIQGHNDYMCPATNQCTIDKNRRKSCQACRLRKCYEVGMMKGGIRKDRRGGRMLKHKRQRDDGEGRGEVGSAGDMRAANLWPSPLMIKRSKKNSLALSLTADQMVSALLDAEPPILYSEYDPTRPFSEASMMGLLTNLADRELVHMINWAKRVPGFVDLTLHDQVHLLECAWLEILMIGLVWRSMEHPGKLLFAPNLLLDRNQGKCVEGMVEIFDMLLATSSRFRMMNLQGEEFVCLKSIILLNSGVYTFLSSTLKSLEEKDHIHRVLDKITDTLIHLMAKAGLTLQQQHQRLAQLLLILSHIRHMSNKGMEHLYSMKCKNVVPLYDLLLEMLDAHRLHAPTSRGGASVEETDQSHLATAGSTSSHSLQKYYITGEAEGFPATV

[2] = molecular target: T1, Estrogen receptor (Homo sapiens); experiment: Antagonist activity at ERalpha (301 to 553 amino acid residues) (unknown origin) assessed as inhibition of E2 induced interaction with SRC1 after 24 hrs by yeast-two-hybrid assay; parameters: concentration or dose not given beside the values; scale not given: the % may be the effect or the level left
Estrogen receptor beta = Estrogen receptor beta (Homo sapiens, UniProt Q92731); experiment: Agonist activity at ERbeta (248 to 510 amino acid residues) (unknown origin) assessed as induction of interaction with SRC1 after 24 hrs by yeast two-hybrid assay
Estrogen receptor beta, sequence (Q92731 whole entry, the tested form may be a part): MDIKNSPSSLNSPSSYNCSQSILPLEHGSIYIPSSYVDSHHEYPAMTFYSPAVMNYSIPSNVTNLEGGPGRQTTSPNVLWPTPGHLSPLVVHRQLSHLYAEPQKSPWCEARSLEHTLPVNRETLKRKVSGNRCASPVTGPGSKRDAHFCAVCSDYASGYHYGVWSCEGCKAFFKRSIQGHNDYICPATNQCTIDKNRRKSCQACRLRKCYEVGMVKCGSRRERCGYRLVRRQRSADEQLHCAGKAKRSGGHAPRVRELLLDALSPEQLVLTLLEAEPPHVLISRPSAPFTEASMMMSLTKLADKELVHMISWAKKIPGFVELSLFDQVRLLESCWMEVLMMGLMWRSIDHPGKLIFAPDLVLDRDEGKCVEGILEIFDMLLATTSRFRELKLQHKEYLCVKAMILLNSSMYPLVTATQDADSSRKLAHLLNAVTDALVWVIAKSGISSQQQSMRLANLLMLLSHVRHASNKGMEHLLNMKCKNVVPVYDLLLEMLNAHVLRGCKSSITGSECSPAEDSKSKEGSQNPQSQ

Rattus norvegicus [3] = experiment: Antiosteoporotic activity in ovariectomized Sprague-Dawley rat assessed as bone volume /tissue volume at 1 ug/kg, po qd at 6th week by micro-CT analysis (reference value: 41.33 +/- 5.04%); assay type: functional
Rattus norvegicus [4] = experiment: Antiosteoporotic activity in ovariectomized Sprague-Dawley rat assessed as bone volume /tissue volume at 1 ug/kg, po qd at 12th week by micro-CT analysis (reference value: 31.61 +/- 2.39%); assay type: functional
Rattus norvegicus [5] = experiment: Antiosteoporotic activity in ovariectomized Sprague-Dawley rat assessed as bone volume /tissue volume at 1 ug/kg, po qd at 18th week by micro-CT analysis (reference value: 27.36 +/- 1.99%); assay type: functional
Rattus norvegicus [6] = experiment: Antiosteoporotic activity in ovariectomized Sprague-Dawley rat assessed as trabecular thickness at 1 ug/kg, po qd at 6th week by micro-CT analysis (reference value: 0.086 +/- 0.0069 millimeter); assay type: functional, Trabecula
Rattus norvegicus [7] = experiment: Antiosteoporotic activity in ovariectomized Sprague-Dawley rat assessed as trabecular thickness at 1 ug/kg, po qd at 12th week by micro-CT analysis (reference value: 0.070 +/- 0.0063 millimeter); assay type: functional, Trabecula
Rattus norvegicus [8] = experiment: Antiosteoporotic activity in ovariectomized Sprague-Dawley rat assessed as trabecular thickness at 1 ug/kg, po qd at 18th week by micro-CT analysis (reference value: 0.103 +/- 0.0044 millimeter); assay type: functional, Trabecula
Rattus norvegicus [9] = experiment: Antiosteoporotic activity in ovariectomized Sprague-Dawley rat assessed as trabecular separation at 1 ug/kg, po qd at 6th week by micro-CT analysis (reference value: 0.116 +/- 0.010 millimeter); assay type: functional, Trabecula
Rattus norvegicus [10] = experiment: Antiosteoporotic activity in ovariectomized Sprague-Dawley rat assessed as trabecular separation at 1 ug/kg, po qd at 12th week by micro-CT analysis (reference value: 0.146 +/- 0.010 millimeter); assay type: functional, Trabecula
Rattus norvegicus [11] = experiment: Antiosteoporotic activity in ovariectomized Sprague-Dawley rat assessed as trabecular separation at 1 ug/kg, po qd at 18th week by micro-CT analysis (reference value: 0.234 +/- 0.021 millimeter); assay type: functional, Trabecula
Rattus norvegicus [12] = experiment: Antiosteoporotic activity in ovariectomized Sprague-Dawley rat assessed as serum osteocalcin level at 1 ug/kg, po qd at 12th week by enzyme immunoassay (reference value: 1055.8 +/- 14 ng/ml); assay type: functional
Rattus norvegicus [13] = experiment: Antiosteoporotic activity in ovariectomized Sprague-Dawley rat assessed as serum osteocalcin level at 1 ug/kg, po qd at 18th week by enzyme immunoassay (reference value: 1118.9 +/- 37.77 ng/ml); assay type: functional

| Structure (SMILES) | fold change (FC) [1] | Activity [2] [%] | further results |
| --- | --- | --- | --- |
| Oc1ccc(CC2=C(c3cc(O)cc(O)c3)C(c3ccc(O)cc3)c3c(O)cc(O)cc32)cc1 (stereo not given) | 0.94 | 5.84 | – |
| Oc1cc(O)c2c(c1)[C@H]1[C@H](c3ccccc3)c3c(O)cc(O)cc3[C@H]1[C@@H]2c1ccccc1 | 0.86 | 0 | – |
| O=C1c2cc(O)cc(O)c2[C@@H](c2ccccc2)[C@@H]1c1cc(O)cc(O)c1 (relative stereo) | 0.97 | 7.59 | – |
| Cc1ccc([C@@H]2c3c(O)cc(O)cc3[C@H]3[C@H](c4ccc(O)cc4)c4c(O)cc(O)cc4[C@@H]23)cc1 | 0.99 | 0 | EC50 (Estrogen receptor beta): 5.65 µM |
| Oc1ccc([C@@H]2c3c(O)cc(O)cc3C(O)[C@H]2c2cc(O)cc(O)c2)cc1 (relative stereo) | 1.04 | 24.5 | – |
| Oc1cc(O)cc(C2=C(Cc3ccccc3)c3cc(O)cc(O)c3C2c2ccccc2)c1 (stereo not given) | 0.88 | 0 | – |
| Oc1ccc(C2C(c3cc(O)cc(O)c3)=C(Cc3ccccc3)c3cc(O)cc(O)c32)cc1 (stereo not given) | 0.98 | 2 | – |
| Oc1ccc(/C=C2/c3cc(O)cc(O)c3[C@@H](c3ccc(O)cc3)[C@@H]2c2cc(O)cc(O)c2)cc1 | 0.92 | 20.9 | – |
| Oc1ccc([C@@H]2c3c(O)cc(O)cc3[C@H]3[C@H](c4ccccc4)c4c(O)cc(O)cc4[C@@H]23)cc1 | 0.94 | 0.76 | – |
| Oc1ccc(C2C(c3cc(O)cc(O)c3)=C(Cc3ccc(F)cc3)c3cc(O)cc(O)c32)cc1 (stereo not given) | 0.83 | 1.59 | – |
| O=c1c(-c2ccc(O)cc2)coc2cc(O)cc(O)c12 [GENISTEIN] | – | – | Activity (Rattus norvegicus [3]): 40.5%; Activity (Rattus norvegicus [4]): 40.62%; Activity (Rattus norvegicus [5]): 41.62%; Activity (Rattus norvegicus [6]): 0.084 mm; Activity (Rattus norvegicus [7]): 0.079 mm; Activity (Rattus norvegicus [8]): 0.102 mm; Activity (Rattus norvegicus [9]): 0.125 mm; Activity (Rattus norvegicus [10]): 0.134 mm; Activity (Rattus norvegicus [11]): 0.157 mm; Activity (Rattus norvegicus [12]): 954.33 ng/mL; Activity (Rattus norvegicus [13]): 882.76 ng/mL |

The next lines start with results.

| fold change (FC) [1] | Activity [2] [%] | Structure (SMILES) | further results |
| --- | --- | --- | --- |
| 0.95 | 0 | Oc1ccc([C@@H]2c3c(O)cc(O)cc3[C@H]3[C@H](c4ccc(F)cc4)c4c(O)cc(O)cc4[C@@H]23)cc1 | – |
| 0.88 | 15.2 | Oc1ccc(C2C(c3cc(O)cc(O)c3)=C(Cc3ccc(Cl)cc3)c3cc(O)cc(O)c32)cc1 (stereo not given) | EC50 (Estrogen receptor beta): 45.8 µM |
| 1.01 | 5.23 | Oc1ccc([C@@H]2c3c(O)cc(O)cc3[C@H]3[C@H](c4ccc(O)cc4)c4c(O)cc(O)cc4[C@@H]23)cc1 | – |
| 0.1 | 0 | Oc1ccc(/C=C/c2cc(O)cc(O)c2)cc1 | – |
| 0.86 | 8.48 | Oc1ccc(CC2=C(c3cc(O)cc(O)c3)C(c3ccccc3)c3c(O)cc(O)cc32)cc1 (stereo not given) | – |
| 0.94 | 7.61 | O=C1c2cc(O)cc(O)c2[C@@H](c2ccc(F)cc2)[C@@H]1c1cc(O)cc(O)c1 (relative stereo) | – |
